Laboratory results taken from article PMC13308190, “Endothelial progenitor cell susceptibility to DNA damaging and DDR-modulating compounds determines endothelial differentiation accuracy” (Stem Cell Research & Therapy, 2026).

Columns and labels:
Assay type in all cases: cell-based, mouse
[1] = test system: EC d6 (endothelial-like cells); experiment: RT-qPCR mRNA expression; conditions: for Cdkn1a mRNA / Cdkn2a mRNA / Glb1 mRNA / Il6 mRNA / Il8 mRNA / Tp53 mRNA: Fig 7C
Description: (§1) Total RNA was purified using the RNeasy Mini Kit (Qiagen, Hilden, Germany). Reverse transcriptase (RT) reaction was performed with the HighCapacity cDNA Reverse Transcription Kit (Applied Biosystems, Darmstadt, Germany) using 900–2000 ng of RNA. Quantitative RT-qPCR analysis was performed using following conditions: (1) 95 °C–10 min; (2) 45 amplification cycles with 95 °C–15 s, 55 °C–15 s, and 72 °C–17 s; (3) 95 °C–1 min, 55 °C–1 min, 65 °C–5 s. If not stated otherwise, analyses were performed in technical triplicates using pooled samples from two independent experiments (each performed with biological duplicates) by use of a CFX96 cycler (BioRad) and the SensiMix SYBR Kit (Bioline, London, UK). The primers used for mRNA expression analyses are listed in Supplementary Table 1. To ensure the specificity of the amplification product, melting curves were recorded at the end of the run. mRNA expression levels were normalized to β-Actin and Gapdh. Relative mRNA expression in mESC or corresponding untreated controls was set to 1.0. Only changes in gene expression of ≤ 0.5- and ≥ 2-fold were considered as biologically relevant.

[2] = test system: EC d4 (endothelial progenitor cells); experiment: RT-qPCR mRNA expression; conditions: for Ccl2 mRNA / E-selectin mRNA / Icam-1 mRNA / Vcam-1 mRNA / eNos mRNA / iNos mRNA: Fig 8D; for Cdkn1a mRNA / Cdkn2a mRNA / Glb1 mRNA / Il6 mRNA / Il8 mRNA / Tp53 mRNA: Fig 7B
Description: as §1
To monitor prototypical functions of endothelial cells, the uptake of fluorescent 1,1-dioctadecyl-3,3,3,3-tetra-methylindocarbocyanine-labeled acetylated LDL (Dil-acLDL) was examined. Briefly, cells were incubated with Dil-acLDL (10 µg/ml, 4 h, 37 °C). After fixation (3.7% cold formaldehyde/PBS (15 min, RT) nuclei were counterstained with DAPI. The uptake of DiI-acLDL was analyzed by fluorescence microscopy (Olympus BX43, 20x objective). Additionally, the response of differentiated EC to inflammatory cytokines was measured. After treatment with a pro-inflammatory cytokine mixture (TNFα/IL-1β, 10 ng/mL) for 1 h, mRNA expression of activated EC markers E-selectin, Icam-1, Vcam-1, Ccl2, eNos, iNos was analyzed (RT-qPCR).

[3] = test system: mESC; experiment: Western blot protein expression (densitometry); conditions: mESC 24 h
Description: Total protein cell extracts were obtained upon sonication in RIPA buffer (EpiShearTM Probe sonicator, Active Motif [La Hulpe, Belgium]). Protein concentrations were determined using the DC Protein Assay (BioRad [Munich, Germany]). Extracts were supplemented with Roti®-Load buffer (Carl Roth GmbH [Karlsruhe, Germany]) followed by heating (95 °C for 5 min). 20 µg of protein was separated by SDS-PAGE and transferred onto nitrocellulose membrane. After blocking (5% non-fat milk in TBS/0.1% Tween 20 or 5% BSA in TBS/0.1% Tween 20) (1 h, RT) membrane was incubated with primary antibodies (1:500–5000; overnight, 4 °C). After washing with TBS/0.1% Tween 20, peroxidase-conjugated secondary antibody (1:2000) was added (2 h, RT) and bands were visualized using ChemiDoxTM Touch imaging system (BioRad, Munich, Germany).

[4] = EC d6 + 10 µM 24 h + 24 h post incubation
[5] = EC d6 + 20 µM 24 h + 24 h post incubation
[6] = EC d4 + 5 µM 48 h, analysed in EC d6
[7] = EC d4 + 5 µM 48 h, then + I/T (IL-1β/TNFα 10 ng/ml, 1 h)
[8] = EC d4 + 15 µM 48 h, analysed day 6, Fig 1C
[9] = EC d4 + 15 µM 48 h, analysed in EC d6
[10] = EC d4 + 15 µM 48 h, then + I/T (IL-1β/TNFα 10 ng/ml, 1 h)
[11] = Fig 5D, concentration 1 (Dox 1/B02 1/EST 1)
[12] = Fig 5D, concentration 2 (Dox 2/B02 2/EST 2)

O=c1c2ccccc2nc(/C=C/c2cccnc2)n1Cc1ccccc1 [B02]
Cdkn1a mRNA [1, 4]: 1.67 Fold of untreated control | Cdkn2a mRNA [1, 4]: 0.64 Fold of untreated control | Glb1 mRNA [1, 4]: 0.88 Fold of untreated control | Il6 mRNA [1, 4]: 0.85 Fold of untreated control | Il8 mRNA [1, 4]: 0.52 Fold of untreated control | Tp53 mRNA [1, 4]: 0.97 Fold of untreated control | Cdkn1a mRNA [1, 5]: 2.28 Fold of untreated control | Cdkn2a mRNA [1, 5]: 1.15 Fold of untreated control | Glb1 mRNA [1, 5]: 1.64 Fold of untreated control | Il6 mRNA [1, 5]: 1.79 Fold of untreated control | Il8 mRNA [1, 5]: 0.32 Fold of untreated control | Tp53 mRNA [1, 5]: 1.27 Fold of untreated control | Brca1 mRNA ([1]; EC d6 + 20 µM 24 h, Fig 5C): 0.51 Fold of mESC | Chk1 mRNA ([1]; EC d6 + 20 µM 24 h, Fig 5C): 1.27 Fold of mESC | Rad51 mRNA ([1]; EC d6 + 20 µM 24 h, Fig 5C): 0.34 Fold of mESC | Pgc1a mRNA ([1]; EC d6 + 20 µM 24 h, Fig 6D): 0.27 Fold of untreated control | Cldn5 mRNA ([1]; EC d6 + 20 µM 24 h, Fig 8C): 4.85 Fold of EC d4 or d6 | Ocln mRNA ([1]; EC d6 + 20 µM 24 h, Fig 8C): 1.87 Fold of EC d4 or d6 | Tjp1 mRNA ([1]; EC d6 + 20 µM 24 h, Fig 8C): 1.07 Fold of EC d4 or d6 | Ccl2 mRNA [2, 6]: 2.96 Fold of untreated control | E-selectin mRNA [2, 6]: 120.46 Fold of untreated control | Icam-1 mRNA [2, 6]: 3.12 Fold of untreated control | Vcam-1 mRNA [2, 6]: 0.19 Fold of untreated control | eNos mRNA [2, 6]: 153.40 Fold of untreated control | iNos mRNA [2, 6]: 2.01 Fold of untreated control | Ccl2 mRNA [2, 7]: 279.77 Fold of untreated control | E-selectin mRNA [2, 7]: 257.65 Fold of untreated control | Icam-1 mRNA [2, 7]: 9.69 Fold of untreated control | Vcam-1 mRNA [2, 7]: 0.36 Fold of untreated control | eNos mRNA [2, 7]: 184.04 Fold of untreated control | iNos mRNA [2, 7]: 2.26 Fold of untreated control | Cdkn1a mRNA ([2]; EC d4 + 5 µM 48 h): 1.71 Fold of untreated control | Cdkn2a mRNA ([2]; EC d4 + 5 µM 48 h): 1.24 Fold of untreated control | Glb1 mRNA ([2]; EC d4 + 5 µM 48 h): 1.45 Fold of untreated control | Il6 mRNA ([2]; EC d4 + 5 µM 48 h): 0.80 Fold of untreated control | Il8 mRNA ([2]; EC d4 + 5 µM 48 h): 0.83 Fold of untreated control | Tp53 mRNA ([2]; EC d4 + 5 µM 48 h): 0.98 Fold of untreated control | Flk1 mRNA [2, 8]: 6.99 Fold of mESC | Nanog mRNA [2, 8]: 0.03 Fold of mESC | Oct4 mRNA [2, 8]: 0.01 Fold of mESC | Pecam1 mRNA [2, 8]: 0.62 Fold of mESC | Tie1 mRNA [2, 8]: 29.11 Fold of mESC | VE-cad mRNA [2, 8]: 484.74 Fold of mESC | Ccl2 mRNA [2, 9]: 0.38 Fold of untreated control | E-selectin mRNA [2, 9]: 126.11 Fold of untreated control | Icam-1 mRNA [2, 9]: 1.02 Fold of untreated control | Vcam-1 mRNA [2, 9]: 0.08 Fold of untreated control | eNos mRNA [2, 9]: 47.93 Fold of untreated control | iNos mRNA [2, 9]: 0.43 Fold of untreated control | Ccl2 mRNA [2, 10]: 84.86 Fold of untreated control | E-selectin mRNA [2, 10]: 165.16 Fold of untreated control | Icam-1 mRNA [2, 10]: 2.52 Fold of untreated control | Vcam-1 mRNA [2, 10]: 0.12 Fold of untreated control | eNos mRNA [2, 10]: 55.08 Fold of untreated control | iNos mRNA [2, 10]: 0.33 Fold of untreated control | Brca1 mRNA ([2]; EC d4 + 15 µM 48 h, Fig 5C): 0.27 Fold of mESC | Chk1 mRNA ([2]; EC d4 + 15 µM 48 h, Fig 5C): 0.92 Fold of mESC | Rad51 mRNA ([2]; EC d4 + 15 µM 48 h, Fig 5C): 0.19 Fold of mESC | Pgc1a mRNA ([2]; EC d4 + 15 µM 48 h, Fig 6D): 0.11 Fold of untreated control | Cdkn1a mRNA ([2]; EC d4 + 15 µM 48 h): 2.57 Fold of untreated control | Cdkn2a mRNA ([2]; EC d4 + 15 µM 48 h): 1.39 Fold of untreated control | Glb1 mRNA ([2]; EC d4 + 15 µM 48 h): 2.55 Fold of untreated control | Il6 mRNA ([2]; EC d4 + 15 µM 48 h): 1.35 Fold of untreated control | Il8 mRNA ([2]; EC d4 + 15 µM 48 h): 0.85 Fold of untreated control | Tp53 mRNA ([2]; EC d4 + 15 µM 48 h): 0.72 Fold of untreated control | Cldn5 mRNA ([2]; EC d4 + 15 µM 48 h, Fig 8C): 0.18 Fold of EC d4 or d6 | Ocln mRNA ([2]; EC d4 + 15 µM 48 h, Fig 8C): 1.16 Fold of EC d4 or d6 | Tjp1 mRNA ([2]; EC d4 + 15 µM 48 h, Fig 8C): 1.26 Fold of EC d4 or d6 | Ldlr mRNA ([2]; EC d4 + 15 µM 48 h, Fig 8F): 1.78 Fold of untreated control | H3ac protein ([3]; Fig 1D): 1.8 Fold of mESC | H4ac protein ([3]; Fig 1D): 232.9 Fold of mESC | aTubac (acetylated α-Tubulin) protein ([3]; Fig 1D): 0.5 Fold of mESC | CHK1 protein ([3]; Fig 4H, Eto, Dox 1, B02, EST): 1.4 Fold of mESC | p-ATR protein ([3]; Fig 4H, Eto, Dox 1, B02, EST): 2.7 Fold of mESC | p-CHK1 protein ([3]; Fig 4H, Eto, Dox 1, B02, EST): 0.8 Fold of mESC | p-RPA32 protein ([3]; Fig 4H, Eto, Dox 1, B02, EST): 2.0 Fold of mESC | p-p53 protein ([3]; Fig 4H, Eto, Dox 1, B02, EST): 1.2 Fold of mESC | CHK1 protein [3, 11]: 0.8 Fold of mESC | RAD51 protein [3, 11]: 1.9 Fold of mESC | gH2AX protein [3, 11]: < 0.1 Fold of mESC | p-CHK2 protein [3, 11]: 0.9 Fold of mESC | p-KAP1 protein [3, 11]: 1.30 Fold of mESC | p-RPA32 protein [3, 11]: 0.8 Fold of mESC | p-p53 protein [3, 11]: 0.9 Fold of mESC | CHK1 protein [3, 12]: 1.0 Fold of mESC | RAD51 protein [3, 12]: 2.3 Fold of mESC | gH2AX protein [3, 12]: 0.5 Fold of mESC | p-CHK2 protein [3, 12]: 1.1 Fold of mESC | p-KAP1 protein [3, 12]: 1.26 Fold of mESC | p-RPA32 protein [3, 12]: 1.3 Fold of mESC | p-p53 protein [3, 12]: 1.2 Fold of mESC | AMPKa protein ([3]; Fig 6E): 0.2 Fold of mESC | GSK3b protein ([3]; Fig 6E): 1.3 Fold of mESC | p-p70SK protein ([3]; Fig 6E): 1.2 Fold of mESC
